In paper PMC12116762, “Topobexin targets the Topoisomerase II ATPase domain for beta isoform-selective inhibition and anthracycline cardioprotection” (Nature Communications, 2025):
Where “and” joins values, the source holds several entries; their conditions need not be identical. Equal values may be shown once. Read-outs that look alike come from different tables or passages of the source.

How the values were obtained:
[1] = tested on: neonatal rat ventricular cardiomyocytes (NVCM); assay: Protection against DAU-induced cytotoxicity (LDH release) in NVCM; format: cell-based; parameters: key to Suppl.Fig.3 DAU-induced cytotoxicity (LDH release) in NVCM, mean of independent replicates / LDH release (DAU-induced cytotoxicity), mean of independent replicates: % of total LDH activity; conditions: for minimal effective concentration: protection against DAU 1.2 µM, n=4, read-out: LEC = lowest effective concentration; for LDH release: independent replicates
How it was run: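 Primary neonatal Wistar rat cardiomyocytes in serum- and pyruvate-free DMEM/F12 were pretreated with compound 3 h, then co-incubated 3 h with DAU (1.2 µM), or without DAU for inherent toxicity, then given a 48 h drug-free follow-up. Medium LDH activity (NAD+ reduction at 340 nm) expressed as % of total LDH.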

γH2AX = γH2AX levels in NVCM (Western blotting); format: cell-based, rat; parameters: γH2AX level, mean: scale not given here; conditions: DAU 1.2 μM alone
Protocol: TOP2B and γH2AX levels in NVCM were determined as follows. After incubation, 4 × 10^5 rat neonatal cardiomyocytes were lysed with 75 µL of 2% SDS in 0.1 M Tris (pH 7.4) and boiled at 95 °C for 5 min. The protein content of each sample was determined by the BCA method and 10 μg of total protein were loaded onto a polyacrylamide gel (7.5% for TOP2B, 12% for γH2AX, Bio-Rad TGX stain-free gels). After approximately 75 min of electrophoresis (150 V, Bio-Rad Mini-PROTEAN Tetra Cell), the gels were transblotted onto nitrocellulose membranes using a semi-dry method in Transblot Turbo (Bio-Rad, USA). The next day, the membranes were blocked for 1 h in 5% skimmed milk powder in 0.05% TBS-T at room temperature (RT). For TOP2 analysis, membranes were incubated with rabbit anti-TOP2A/B (1:2,000, ab109524, Abcam, UK) in 1% BSA in PBS for 1 h at RT, washed 6 times for 5 min in 0.05% TBS-T and then incubated with HRP-labeled F(ab’)2 goat anti-rabbit IgG (1:10,000, ab6112, Abcam, UK) in 0.05% TBS-T for 1 h RT and washed again (6 × 5 min in 0.05% TBS-T). For γH2AX analysis, membranes were incubated with mouse anti-γH2AX (1:5,000; ab26350, Abcam, UK) in 5% BSA in PBS for 1 h at RT, washed with 0.05% PBS-T for 6 × 5 min, incubated with HRP-conjugated anti-mouse IgG (1:40,000; A9044 Sigma Aldrich, USA) in 5% BSA in PBS for 1 h RT and finally washed with 0.05% PBS-T for 6 times 5 min. Target proteins were visualized using a chemiluminescent detection substrate (Clarity Western ECL Substrate, Bio-Rad, USA) and a Gel Doc EZ with Image Lab software (Bio-Rad, USA). Full, uncropped images of all blots present in the manuscript figures are included in the source data file.
Densitometric quantification was performed using Image Lab software (Bio-Rad). Stain-free technology was used to visualize the total protein on the gel and normalize the total protein amount in each line. Each presented data point was obtained from distinct sample.

## CCCc1cc(=O)oc2c(C(=O)N3CCCc4ccccc43)c(OCCO)ccc12 [5c]
[1]; NVCM, DAU 1.2 µM
  concentration providing significant cardioprotection: ≥ 0.1 µM
[1]; Rattus norvegicus, Cardiomyocyte, NVCM
  minimal effective concentration: 0.1 µM
[1]; compound 0.01 µM + DAU 1.2 µM
  LDH release, mean: 43.3429 % of total LDH
  Suppl.Fig.3 DAU-induced cytotoxicity (LDH release) in NVCM, mean of independent replicates: 43.3429
  LDH release: 38.8043 % of total LDH and 44.6863 % of total LDH and 52.1182 % of total LDH and 37.7626 % of total LDH
[1]; compound 0.1 µM + DAU 1.2 µM
  LDH release, mean: 37.9008 % of total LDH
  Suppl.Fig.3 DAU-induced cytotoxicity (LDH release) in NVCM, mean of independent replicates: 37.9008
  LDH release: 31.4509 % of total LDH and 46.2465 % of total LDH and 39.969 % of total LDH and 33.9368 % of total LDH
[1]; compound 1 µM + DAU 1.2 µM
  LDH release, mean: 32.4872 % of total LDH
  Suppl.Fig.3 DAU-induced cytotoxicity (LDH release) in NVCM, mean of independent replicates: 32.4872
  LDH release: 27.3874 % of total LDH and 32.0086 % of total LDH and 42.6349 % of total LDH and 27.9179 % of total LDH
[1]; compound 10 µM + DAU 1.2 µM
  LDH release, mean: 26.8851 % of total LDH
  Suppl.Fig.3 DAU-induced cytotoxicity (LDH release) in NVCM, mean of independent replicates: 26.8851
  LDH release: 22.9974 % of total LDH and 24.3605 % of total LDH and 29.85 % of total LDH and 30.3325 % of total LDH
[1]; compound 30 µM + DAU 1.2 µM
  LDH release, mean: 27.5762 % of total LDH
  Suppl.Fig.3 DAU-induced cytotoxicity (LDH release) in NVCM, mean of independent replicates: 27.5762
  LDH release: 24.4062 % of total LDH and 28.0233 % of total LDH and 28.184 % of total LDH and 29.6914 % of total LDH
[1]; compound 100 µM + DAU 1.2 µM
  LDH release, mean: 31.1384 % of total LDH
  Suppl.Fig.3 DAU-induced cytotoxicity (LDH release) in NVCM, mean of independent replicates: 31.1384
  LDH release: 22.9096 % of total LDH and 39.1124 % of total LDH and 31.4385 % of total LDH and 31.093 % of total LDH

## CCCc1cc(=O)oc2c(C(=O)N3CCCc4ccccc43)c(OC)cc(OC)c12 [BNS-22]
[1]; NVCM
  minimal effective concentration: 1 µM
[1]; compound 0.01 µM + DAU 1.2 µM
  LDH release, mean: 38.9374 % of total LDH
  Suppl.Fig.3 DAU-induced cytotoxicity (LDH release) in NVCM, mean of independent replicates: 38.9374
  LDH release: 36.8796 % of total LDH and 42.975 % of total LDH and 39.3894 % of total LDH and 36.5057 % of total LDH
[1]; compound 0.1 µM + DAU 1.2 µM
  LDH release, mean: 33.1153 % of total LDH
  Suppl.Fig.3 DAU-induced cytotoxicity (LDH release) in NVCM, mean of independent replicates: 33.1153
  LDH release: 30.1987 % of total LDH and 38.5314 % of total LDH and 34.1236 % of total LDH and 29.6074 % of total LDH
[1]; compound 1 µM + DAU 1.2 µM
  LDH release, mean: 28.1702 % of total LDH
  Suppl.Fig.3 DAU-induced cytotoxicity (LDH release) in NVCM, mean of independent replicates: 28.1702
  LDH release: 24.6443 % of total LDH and 29.0885 % of total LDH and 32.0729 % of total LDH and 26.875 % of total LDH
[1]; compound 3 µM + DAU 1.2 µM
  LDH release, mean: 24.9748 % of total LDH
  Suppl.Fig.3 DAU-induced cytotoxicity (LDH release) in NVCM, mean of independent replicates: 24.9748
  LDH release: 26.7887 % of total LDH and 18.8271 % of total LDH and 27.1872 % of total LDH and 27.096 % of total LDH
[1]; compound 10 µM + DAU 1.2 µM
  LDH release, mean: 23.9768 % of total LDH
  Suppl.Fig.3 DAU-induced cytotoxicity (LDH release) in NVCM, mean of independent replicates: 23.9768
  LDH release: 25.2929 % of total LDH and 19.0756 % of total LDH and 25.4172 % of total LDH and 26.1213 % of total LDH

## COc1cccc2c1C(=O)c1c(O)c3c(c(O)c1C2=O)C[C@@](O)(C(C)=O)C[C@@H]3O[C@H]1C[C@H](N)[C@H](O)[C@H](C)O1 [DAU, daunorubicin, reference compound]
γH2AX
  γH2AX level, mean: 100
γH2AX; independent replicates
  γH2AX level: 113.699 and 89.6209 and 76.0928 and 120.587
[1]; DAU 1.2 µM alone, 48 h
  LDH release, mean: 50.9581 % of total LDH and 40.9598 % of total LDH and 38.3367 % of total LDH
  LDH release: 42.9177 % of total LDH and 49.9715 % of total LDH and 51.9004 % of total LDH and 59.0427 % of total LDH and 48.4333 % of total LDH and 43.9079 % of total LDH and 36.1066 % of total LDH and 35.3914 % of total LDH and 37.5065 % of total LDH and 36.8503 % of total LDH and 39.0464 % of total LDH and 39.9436 % of total LDH
[1]; DAU 1.2 µM alone, NVCM, Suppl.Fig.6b
  LDH release (DAU-induced cytotoxicity), mean of independent replicates: 49.0741 and 44.6225 and 40.9598 and 43.4866
[1]; DAU 1.2 µM alone, NVCM, Suppl.Fig.8a
  LDH release (DAU-induced cytotoxicity), mean of independent replicates: 50.2853
[1]; DAU 1.2 µM alone, one value per experiment set (compound block)
  Suppl.Fig.3 DAU-induced cytotoxicity (LDH release) in NVCM, mean of independent replicates: 52.5555 and 50.9581 and 43.2031 and 52.6717 and 39.8455 and 40.6658 and 38.8384 and 49.4177 and 40.4688 and 38.0883 and 38.3367 and 37.1578 and 50.485 and 47.9698 and 52.8733 and 52.0892 and 42.039 and 50.4287

## C[C@@H](CN1CC(=O)NC(=O)C1)N1CC(=O)NC(=O)C1 [dexrazoxane]
[1]; NVCM
  concentration needed for similar extent of protection, relative to topobexin (9): at least 10 ×
[1]; compound 0.1 µM + DAU 1.2 µM, NVCM, Suppl.Fig.8a
  LDH release (protection against DAU), mean of independent replicates: 48.0486
[1]; compound 1 µM + DAU 1.2 µM, NVCM, Suppl.Fig.8a
  LDH release (protection against DAU), mean of independent replicates: 43.2962
[1]; compound 10 µM + DAU 1.2 µM, NVCM, Suppl.Fig.8a
  LDH release (protection against DAU), mean of independent replicates: 41.8711
[1]; compound 100 µM + DAU 1.2 µM, NVCM, Suppl.Fig.8a
  LDH release (protection against DAU), mean of independent replicates: 36.8821
